Reference: US9216971B2 (priority 2007, dated 2015)
Where two headings read alike, the source gives them in different places.

Tests used:
[1] = molecular target: T1, hM3 muscarinic receptor subtype (Homo sapiens, UniProt P20309); experiment: biochemical; assay type: binding
T1 construct: expressed in transfected cells; membranes prepared

hM2 receptor = molecular target: T2, hM2 receptor (Homo sapiens, UniProt P08172); experiment: Blockade of agonist-mediated inhibition of cAMP accumulation; assay type: cell-based; conditions: CHO-K1 cells expressing the hM2 receptor; read-out: Ki for blockade of oxotremorine-inhibition of forskolin-mediated cAMP accumulation
T2 construct: expressed in transfected cells; host or cells: CHO-K1 cells
T2 sequence (P08172 1-466): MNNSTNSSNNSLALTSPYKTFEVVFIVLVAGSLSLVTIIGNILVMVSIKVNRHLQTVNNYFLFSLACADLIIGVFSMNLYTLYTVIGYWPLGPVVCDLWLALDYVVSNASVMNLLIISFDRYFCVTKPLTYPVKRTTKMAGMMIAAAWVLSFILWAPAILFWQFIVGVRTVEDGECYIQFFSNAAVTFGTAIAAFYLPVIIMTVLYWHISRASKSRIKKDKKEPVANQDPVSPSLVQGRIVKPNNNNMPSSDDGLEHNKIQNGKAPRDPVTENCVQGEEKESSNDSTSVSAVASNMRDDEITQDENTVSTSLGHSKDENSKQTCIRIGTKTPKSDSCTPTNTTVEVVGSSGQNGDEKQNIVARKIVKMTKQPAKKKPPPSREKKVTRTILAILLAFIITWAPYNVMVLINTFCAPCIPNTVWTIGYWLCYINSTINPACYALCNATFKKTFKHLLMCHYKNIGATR

MCh response = conditions: rat
[2] = system: pilocarpine-induced salivation; experiment: Rat antisialagogue assay; assay type: in vivo; conditions: evaluated at 1, 6, and 24 hours post-dose
Description: Rats (Sprague-Dawley, male, 250-350 g) are dosed, anesthetized and cannulated as described for Assay 3. At predetermined time points and after surgery, animals are placed on their dorsal side at a 20° incline with their head in a downward slope. A pre-weighed gauze pad is inserted in the animal's mouth and the muscarinic agonist pilocarpine (PILO) (3 mg/kg, IV) is administered. Saliva produced during 10 minutes post-PILO is measured gravimetrically by determining the weight of the gauze pad before and after PILO. Antisialagogue effects are expressed as % inhibition of salivation relative to control animals.
The rat antisialagogue assay was developed to assess systemic exposure and calculate the lung selectivity index (LSI) of test compounds. The standard, tiotropium, was evaluated in this model at 1, 6, and 24 hours post-dose. […] This finding is consistent with the peak effects observed in the Einthoven assay.
This model is a modified version of the procedure described in Rechter, “Estimation of anticholinergic drug effects in mice by antagonism against pilocarpine-induced salivation” Ata Pharmacol Toxicol 24:243-254 (1996). The mean weight of saliva in vehicle-treated animals, at each pre-treatment time, is calculated and used to compute % inhibition of salivation, at the corresponding pre-treatment time, at each dose.

T1 sequence (P20309 whole entry): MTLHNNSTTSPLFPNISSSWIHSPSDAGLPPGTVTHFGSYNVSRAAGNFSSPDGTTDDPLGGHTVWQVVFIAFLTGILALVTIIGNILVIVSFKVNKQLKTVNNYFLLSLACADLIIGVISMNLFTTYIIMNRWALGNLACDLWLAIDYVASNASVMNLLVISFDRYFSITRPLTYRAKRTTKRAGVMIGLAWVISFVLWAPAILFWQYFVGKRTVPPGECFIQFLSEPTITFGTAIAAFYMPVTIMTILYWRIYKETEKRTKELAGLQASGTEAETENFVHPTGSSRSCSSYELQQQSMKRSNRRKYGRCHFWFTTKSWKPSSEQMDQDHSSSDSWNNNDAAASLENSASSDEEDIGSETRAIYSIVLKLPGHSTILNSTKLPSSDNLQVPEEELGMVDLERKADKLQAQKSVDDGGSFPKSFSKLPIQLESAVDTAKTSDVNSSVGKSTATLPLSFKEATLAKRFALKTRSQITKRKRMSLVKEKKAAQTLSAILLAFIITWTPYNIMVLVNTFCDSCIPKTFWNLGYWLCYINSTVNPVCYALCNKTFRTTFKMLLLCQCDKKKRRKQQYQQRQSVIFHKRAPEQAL

SMILES: C[N+](C)(CCc1cccc(O)c1)C1CCN(C(=O)[C@](O)(c2ccccc2)C2CCCC2)CC1 [Example 2, [1-((R)-2-cyclopentyl-2-hydroxy-2-phenylacetyl)piperidin-4-yl][2-(3-hydroxyphenyl)ethyl]dimethylammonium]
- Ki [1]: < 1 nM
- Ki (hM2 receptor): < 1 nM

SMILES: CC(C)[N+]1(C)[C@@H]2CC[C@H]1C[C@@H](OC(=O)C(CO)c1ccccc1)C2 (stereo partly shown) [ipratropium]
- ID50 (bronchoprotective potency) (MCh response; in vivo): 4.4 µg/mL
- fold less potent 6-hours post-dose compared to 1.5 hour potency (MCh response; in vivo): about 3 fold

SMILES: C[N+](C)(CCc1ccccc1)C1CCN(C(=O)[C@](O)(c2ccccc2)C2CCCC2)CC1 [Example 1, [1-((R)-2-cyclopentyl-2-hydroxy-2-phenylacetyl)piperidin-4-yl]dimethylphenethylammonium]
- Ki [1]: < 1 nM

SMILES: C[N+]1(C)[C@@H]2C[C@@H](OC(=O)C(O)(c3cccs3)c3cccs3)C[C@H]1[C@@H]1O[C@@H]12 [tiotropium]
- time post dose at which most potent at inhibiting pilocarpine-induced salivation [2]: 6 h
- ID50 (bronchoprotective potency) (MCh response; in vivo): 6 µg/mL
- fold more potent at 6 hour and 24 hour compared to 1.5 hour potency (MCh response; in vivo): about 2 fold
- time of peak bronchoprotection post-dose (MCh response; in vivo): 6 h

SMILES: C[N+]1(C)CCC(OC(=O)C(O)(c2ccccc2)C2CCCC2)C1 (stereo not shown) [glycopyrrolate]
- ID50 (bronchoprotective potency) (MCh response; inhalation, 1.5 hours post-dose): 15 µg/mL
